Data as given in PubChem BioAssay (NCI).
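Briefly, cells in 96-well plates were exposed to five compound concentrations for 48 h, and endpoints were estimated by linear interpolation. GI50: concentration for 50% inhibition of growth. The concentration for full growth arrest is given as TGI.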

Key:
Assay in all cases: NCI-60 cell line screen, 48 h
SK-MEL-2 melanoma = system: SK-MEL-2 melanoma
HT29 colon = system: HT29 colon
UACC-62 melanoma = system: UACC-62 melanoma
K-562 leukemia = system: K-562 leukemia
MDA-MB-435 = system: MDA-MB-435
SF-539 CNS = system: SF-539 CNS
OVCAR-3 ovarian = system: OVCAR-3 ovarian
HOP-62 NSCLC = system: HOP-62 NSCLC
A549 NSCLC = system: A549 NSCLC
SF-295 CNS = system: SF-295 CNS

SMILES | GI50 (SK-MEL-2 melanoma) | TGI (SK-MEL-2 melanoma) | GI50 (HT29 colon) | TGI (HT29 colon) | GI50 (UACC-62 melanoma) | TGI (UACC-62 melanoma) | GI50 (K-562 leukemia) | TGI (K-562 leukemia) | GI50 (MDA-MB-435) | TGI (MDA-MB-435) | GI50 (SF-539 CNS) | TGI (SF-539 CNS) | GI50 (OVCAR-3 ovarian) | TGI (OVCAR-3 ovarian) | GI50 (HOP-62 NSCLC) | TGI (HOP-62 NSCLC) | GI50 (A549 NSCLC) | TGI (A549 NSCLC) | GI50 (SF-295 CNS) | TGI (SF-295 CNS)
CC(C)[C@H](O)C(=O)N[C@@H](C)C(=O)N[C@@H]1C(=O)N(C)CCc2ccccc21 | > 100 µM | > 100 µM | > 100 µM | > 100 µM | > 100 µM | > 100 µM | > 100 µM | > 100 µM | > 100 µM | > 100 µM | > 100 µM | > 100 µM | > 100 µM | > 100 µM | > 100 µM | > 100 µM | > 100 µM | > 100 µM | > 100 µM | > 100 µM
N[C@H](CCC(=O)N[C@@H](Cc1c[nH]c2ccccc12)C(=O)O)C(=O)O | > 100 µM | > 100 µM | > 100 µM | > 100 µM | > 100 µM | > 100 µM | > 100 µM | > 100 µM | > 100 µM | > 100 µM | > 100 µM | > 100 µM | > 100 µM | > 100 µM | > 100 µM | > 100 µM | > 100 µM | > 100 µM | > 100 µM | > 100 µM
Nc1ccccc1O.O.O=C(O)C1[O][Sb][O]C1C(=O)O (stereo unspecified) | 15 µM | 32.1 µM | 16.4 µM | > 56.2 µM | 15.1 µM | 30.3 µM | 3.77 µM | > 36.1 µM | 16.5 µM | 30.8 µM | 17.9 µM | 37.4 µM | 13.4 µM | 28.6 µM | 17.6 µM | 35 µM | 54.7 µM | > 100 µM | 39.9 µM | > 100 µM
CN(C)CCNCCN | – | > 100 µM | – | > 100 µM | – | > 100 µM | – | > 100 µM | – | > 100 µM | – | > 100 µM | – | > 100 µM | – | > 100 µM | – | > 100 µM | – | > 100 µM
ClC(Cl)=C1C(=C(Cl)Cl)C(Cl)(Cl)C1(Cl)Cl | – | 3.32 µM | – | 7.85 µM | – | 5.36 µM | 0.532 µM | 5.62 µM | – | 14 µM | – | 6.08 µM | – | 14.1 µM | – | 22.1 µM | – | 25.7 µM | – | 7.24 µM
COc1ccc(C(CC(=O)c2ccc3c(c2)OCO3)c2c(O)c3ccccc3oc2=O)cc1OC (stereo unspecified) | – | > 100 µM | – | > 100 µM | – | > 100 µM | – | > 100 µM | – | > 100 µM | – | > 100 µM | – | > 100 µM | – | > 100 µM | – | > 100 µM | – | > 100 µM
COC(=O)C1C(O)C(C(=O)OC)C(C)N(C)C1C (stereo unspecified) | – | > 100 µM | – | > 100 µM | – | > 100 µM | – | > 100 µM | – | > 100 µM | – | > 100 µM | – | > 100 µM | – | > 100 µM | – | > 100 µM | – | > 100 µM
O=C(Nc1cc(Nc2ncccc2-c2ncnc3nc[nH]c23)ccc1F)c1cc(C(F)(F)F)cc(C(F)(F)F)c1 | 0.355 µM | 2.41 µM | 0.446 µM | 4.03 µM | 0.38 µM | 2.32 µM | 0.4 µM | > 10 µM | 0.996 µM | > 10 µM | 1.3 µM | 3.04 µM | 2.67 µM | 6.69 µM | 1.15 µM | > 10 µM | 3.05 µM | > 10 µM | 1.73 µM | 4.01 µM
CCNC(=O)/C(=C/c1ccc(OC)cc1)c1cc(OC)c(OC)c(OC)c1 | – | > 100 µM | – | 65.4 µM | – | > 100 µM | – | > 100 µM | – | > 20.5 µM | – | 45.9 µM | – | 15 µM | – | > 100 µM | – | > 100 µM | – | 19.6 µM
COc1cc2c(Nc3cc(Cl)c(OC)c(Cl)c3)c(C#N)cnc2cc1OCCCN1CCN(C)CC1 | 1.32 µM | 2.9 µM | 0.927 µM | 3.25 µM | 2.73 µM | 7.9 µM | 0.574 µM | 8.41 µM | 1.24 µM | 3.2 µM | 1.01 µM | 2.91 µM | 1.65 µM | 4.49 µM | 3.39 µM | 12.1 µM | 1.5 µM | 4.12 µM | 2.49 µM | 7.45 µM
COc1ccc(-c2cnnn2-c2nonc2-n2cccc2)cc1 | 0.189 µM | 0.8 µM | 0.128 µM | 2.8 µM | 0.529 µM | 28.2 µM | 0.039 µM | > 100 µM | 0.0325 µM | 0.173 µM | 0.321 µM | 4 µM | 0.179 µM | 0.47 µM | 0.34 µM | > 83.1 µM | 0.45 µM | > 44.8 µM | 0.246 µM | 6.21 µM
